Assays:
Format in all cases: in vivo
[1] = tested on: Septoria tritici; test: Protective activity against Septoria foliar blotch disease of wheat caused by Septoria tritici; conditions: wheat seedlings "Riband", inoculated 24 h after spraying, 2 weeks
Experimental: The active compounds were prepared separately or jointly as a 10% strength emulsion in a mixture of 70% by weight of cyclohexanone, 20% by weight of Nekanil® LN (Lutensol® AP6, wetting agent having emulsifying and dispersing action based on ethoxylated alkylphenols) and 10% by weight of Wettol® EM (nonionic emulsifier based on ethoxylated castor oil) and diluted with water to the desired concentration.
Leaves of potted wheat seedlings of the cultivar “Riband” were sprayed to runoff point with an aqueous preparation of active compound which had been prepared from a stock solution made of 10% of active compound, 85% of cyclohexanone and 5% of emulsifier. 24 hours after the spray coating had dried on, they were inoculated with an aqueous spore suspension of Septoria tritici. The suspension contained 2.0×10^6 spores/ml. The test plants were then placed in a greenhouse at 18-22° C. and a relative atmospheric humidity of close to 100%. After 2 weeks, the extent of the development of the disease was determined visually in % infection of the entire leaf area.

[2] = tested on: Puccinia recondita; test: Curative activity against brown rust of wheat caused by Puccinia recondita; conditions: curative spray 24 h after inoculation, wheat seedlings "Kanzler", 7 days
Method in brief: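 Wheat seedlings (cv. Kanzler) inoculated with brown rust spores and held 24 h at 90–95% humidity and 20–22°C, then sprayed to runoff with the emulsified compound the next day. Rust development on leaves scored after 7 days in greenhouse at 20–22°C and 65–70% relative humidity.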

[3] = tested on: Blumeria graminis forma specialis tritici; test: Activity against mildew of wheat caused by Blumeria graminis forma specialis tritici; conditions: wheat seedlings "Kanzler", dusted with spores 24 h after spraying, 7 days
Method in brief: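 Compound, emulsified then diluted in water, sprayed to runoff onto leaves of potted wheat seedlings cv. Kanzler; inoculated with Blumeria graminis f. sp. tritici spores 24 h after the coating dried. Plants kept in greenhouse at 20-24° C., 60-90% relative humidity; mildew scored visually after 7 days as % infected leaf area.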

[4] = tested on: Pyrenophora teres; test: Activity against net blotch of barley caused by Pyrenophora teres; conditions: barley seedlings "Igri", inoculated 24 h after spraying, 6 days
Method in brief: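 Potted barley seedlings (cv. Igri) were sprayed to runoff with aqueous compound preparation, then inoculated with P. teres spores 24 h after the spray dried. Plants were kept in a greenhouse at 20-24° C and 95-100% relative humidity, and disease was scored visually after 6 days as % infected leaf area.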

Row | Structure (SMILES) | % infection of the leaves after application of an aqueous preparation comprising . . . ppm of active compound ([1]; 16 ppm) [%] | % infection of the leaves after application of an aqueous preparation comprising . . . ppm of active compound ([1]; 63 ppm) [%] | % infection of the leaves after application of an aqueous preparation comprising . . . ppm of active compound ([1]; 250 ppm) [%] | % infection of the leaves after application of an aqueous preparation comprising . . . ppm of active compound ([2]; 16 ppm) [%] | % infection of the leaves after application of an aqueous preparation comprising . . . ppm of active compound ([2]; 63 ppm) [%] | % infection of the leaves after application of an aqueous preparation comprising . . . ppm of active compound ([2]; 250 ppm) [%] | % infection of the leaves after application of an aqueous preparation comprising . . . ppm of active compound ([3]; 63 ppm) [%] | % infection of the leaves after application of an aqueous preparation comprising . . . ppm of active compound ([3]; 250 ppm) [%] | % infection of the leaves after application of an aqueous preparation comprising . . . ppm of active compound ([3]; 16 ppm) [%] | % infection of the leaves after application of an aqueous preparation comprising . . . ppm of active compound ([4]; 16 ppm) [%] | % infection of the leaves after application of an aqueous preparation comprising . . . ppm of active compound ([4]; 63 ppm) [%] | % infection of the leaves after application of an aqueous preparation comprising . . . ppm of active compound ([4]; 250 ppm) [%]
1 | CC(C)C(C)Nc1c(-c2c(F)cccc2Cl)c(Cl)nc2ncnn12 [comparison (S)-amine of I.-2] | 90 | 90 | 90 | 100 | 100 | 100 | 100 | 100 |  |  |  | 
2 | CC[C@H](C)Nc1c(-c2c(F)cccc2F)c(Cl)nc2ncnn12 [comparison (S)-amine of I.-4] | 100 | 100 | 90 | 100 | 100 | 100 | 100 | 100 | 100 |  |  | 
3 | CC(C)[C@H](C)Nc1c(-c2c(Cl)cccc2Cl)c(Cl)nc2ncnn12 [comparison (S)-amine of I.-8] | 90 | 90 | 90 |  |  |  |  |  |  | 100 | 100 | 100
4 | CC[C@H](C)Nc1c(-c2c(F)cc(OC)cc2F)c(Cl)nc2ncnn12 [comparison (S)-amine of I.-16] |  | 90 | 90 | 100 | 5 |  | 100 | 100 | 100 |  |  | 
5 | CC[C@H](C)Nc1c(-c2c(F)c(F)c(F)c(F)c2F)c(Cl)nc2ncnn12 [comparison (S)-amine of I.-19] | 90 | 90 | 90 |  |  |  | 30 | 30 |  |  |  | 80
6 | CC(C)[C@H](C)Nc1c(-c2c(F)c(F)c(F)c(F)c2F)c(Cl)nc2ncnn12 [comparison (S)-amine of I.-20] | 90 | 90 | 90 |  |  |  | 40 | 40 | 80 | 100 | 40 | 7

— patent publication US20040110771A1, “7-(r)-aminotriazolopyrimidines, the production thereof and use of the same for combatting phytopathogenic fungi” (priority 2000, published 2004)
